Test results as given in ChEMBL document CHEMBL1136778, “Mitomycin antitumor compounds. 2. Interaction of transition metal ions with mitomycin C. Solution structure and biological activity of a Pd(2+)-MMC complex” (J Med Chem, 2003).

How the values were obtained:
[1] = test system: K562; experiment: In vitro inhibitory activity against K562 leukemia cells in the presence of pd2; format: functional, cell-based; conditions: Homo sapiens
[2] = test system: K562; experiment: In vitro inhibitory activity against K562 leukemia cells; format: functional, cell-based; conditions: Homo sapiens

Row | IC50 [1] | Compound | IC50 [2]
1 | 15.8 nM | CO[C@@]12[C@H](COC(N)=O)C3=C(C(=O)C(C)=C(N)C3=O)N1C[C@@H]1N[C@@H]12 [MITOMYCIN] | 1 nM
2 |  | CC1=C(N)C(=O)c2c(COC(N)=O)c3n(c2C1=O)C[C@H](N)[C@@H]3O | 33 nM
